Drawing on patent publication US20100267775A1, “OXADIAZOLIDINEDIONE COMPOUND” (priority 2007, published 2010), this text covers EC50, inhibition in vivo and minimal effective dose for three compounds.

The target in experiment [1] is T1, human GPR40 (Homo sapiens, UniProt O14842, R211H).
T1 construct: expressed in transfected cells; host or cells: CHO dhfr- cells stably transfected with plasmid pEF-BOS-dhfr-GPR40
Briefly: Measurement of GPR40 agonistic activity (intracellular calcium, FLIPR, CHO cell line expressing human GPR40). In kind it is cell-based. The conditions noted are these: change in fluorescence intensity one minute after measurement. The source says: Test Method 1: Measurement of GPR40 Agonistic Activity i) Cloning of Human GPR40
In accordance with procedures as described below, the full-length sequence of GPR40 was obtained by a polymerase chain reaction (PCR) to set human genomic DNA (Clontech) as a template.
Oligonucleotide which consists of a base sequence represented by SEQ ID NO. 1 was used as a forward primer, and oligonucleotide which consists of a base sequence represented by SEQ ID NO. 2 was used as a reverse primer. To each 5′ terminus of the forward primer and the reverse primer described above, a base sequence including the XbaI recognition site is attached. In the PCR, using Taq DNA polymerase (Ex Taq DNA polymerase; TAKARA BIO INC.), a cycle consisting of 94° C. (15 sec)/55° C. (30 sec)/72° C. (1 min) was repeated 30 times in the presence of 5% DMSO. As a result, the DNA fragment of about 0.9 kbp was amplified. This DNA fragment was digested with XbaI, followed by inserting into the XbaI site of plasmid pEF-BOS-dhfr (Nucleic Acids Research, 18, 5322, 1990) to obtain plasmid pEF-BOS-dhfr-GPR40.
The base sequence of GPR40 gene in plasmid pEF-BOS-dhfr-GPR40 was decided by a dideoxy terminator method using a DNA sequencer (ABI377 DNA Sequencer; Applied Biosystems). The base sequence of GPR40 gene was the same with the base sequence represented by SEQ ID NO. 3. The base sequence represented by SEQ ID NO. […] 4 […]
ii) Preparation of GPR40 Stable Expression Cell
A CHO dhfr cell (CHO cell deleting a dihydrofolate reductase (dhfr) gene) was used as a cell in which GPR 40 protein was expressed. In addition, the plasmid pEF-BOS-dhfr-GPR40 obtained in the above i) was used as an expressing plasmid to express GPR40 protein. To a 6 well plate (Asahi Techno Glass Corp.), the CHO dhfr cells were seeded to become 80 to 90% confluent in an aMEM medium having 10% fetal calf serum (FCS), and cultivated overnight. Then, 2 μg of plasmid pEF-BOS-dhfr-GPR40 per well was transferred generetically thereto using a transfection reagent (Lipofectamine 2000; Invitrogen Corporation). After cultivating for 24 hours subsequent to the gene transfer, the cell were diluted and reseeded. On this occasion, the αMEM medium having 10% FCS was changed for an αMEM medium having 10% FCS and no nucleic acid. After 20 days cultivation, formed cell colonies were collected respectively and cultivated, thereby obtaining CHO cells stably expressing GPR40. Among these, cells high-reactive to an oleic acid and a linoleic acid which were intrinsic ligands were selected. […]
iii) Measurement of GPR40 Agonistic Activity
The GPR40 agonistic activity was measured with fluctuation of the intracellular calcium concentration as an index by FLIPR (registered trademark, Molecular Devices Corporation). Hereinafter, test methods will be described.
A CHO cell line expressing human GPR40 was seeded with 6×10^3 per well to a 384-well black plate (Becton, Dickinson and Company), and cultivated in a CO2 incubator overnight. For a luminescent pigment, a Calcium-3 assay kit (Molecular Devices Corporation) was used, and dissolved in 10 ml of a HBSS-HEPES buffer (PH7.4, 1×HBSS, 20 mM HEPES, Invitrogen Corporation) for a bottle. 35.68 mg of probenecid (Sigma) was dissolved in 250 μl of 1M NaOH, and then 250 μl of a HBSS-HEPES buffer was added to blend. 16 ml of a HBSS-HEPES buffer, 640 μl of the luminescent pigment and 32 μl of probenecid were added to blend for a solution of the luminescent pigment per plate. The medium of the plate was removed, 40 μl of the solution of the luminescent pigment per well was dispensed, followed by incubating at room temperature for 2 hours. A compound to be inspected was dissolved in DMSO, and diluted with a HBSS-HEPES buffer. A reaction was initiated by 10 μl of dispensation, the fluctuation of the intracellular calcium concentration was measured by FLIPR. An EC50 value of the compound to be inspected was calculated from the dose-response curve of change in fluorescence intensity one minute after measurement.
In general terms: Calcium flux is commonly read through the fluorescence of an indicator in the cells.

For experiment [2], the system named is normal mice. Briefly: Single oral glucose tolerance test on normal mice. The conditions noted are these: Mus musculus; for inhibition in vivo at 10 mg/kg: 0.5 h, read-out: Reduction rate of blood glucose level (%); for minimal effective dose: read-out: MED. In kind it is in vivo. How it is done: Test Method 3: Single Oral Glucose Tolerance Test on Normal Mice
The anti-hyperglycemic action after glycemic load of the compound to be inspected was examined using normal mice. Hereinafter, the test method will be described.
Male ICR mice which was preparedly reared for one week (6-week-old) was fasted overnight, and used as an animal to be inspected. A compound to be inspected was 0.5% methylcellulose suspension, and the suspension was orally administered 30 minutes before the glucose (2 g/kg) load. With regard to some compounds to be inspected, prior blood drawing was performed (0 min value), and blood glucose levels were measured at 5, 15, 30, 60 and 120 minutes later glucose load when the compound to be inspected was orally administered. A control group was given 0.5% methylcellulose. The evaluation was carried out in the following manner. (Evaluation 1) The reduction rate of blood glucose levels after glucose loading (%) with respect to the control group was calculated at a point of glucose load which is 30 minutes after the oral administration of 10 mg/kg of the compound to be inspected. […] Ex represents example compound numbers.
(Evaluation 2) The reduction rate of blood glucose levels after glucose loading (%) with respect to the control group was calculated at a point of glucose load which is 30 minutes after the oral administration of 10, 3, 1, 0.3 or 0.1 mg/kg of the compound to be inspected. […] Ex represents example compound numbers. In addition, MED describing “below” in Table 3 means that a test was not carried out due to less than dose described.
The area under the blood concentration-time curve (AUC) of blood glucose levels for 0 to 120 minute(s) was calculated from the blood glucose levels before the blood drawing, and the blood glucose levels at 5, 15, 30, 60, and 120 minutes after the glucose load when 30, 10, 3, 1 or 0.3 mg/kg of the compound to be inspected was orally administered.

pEC50: −log10 of the molar value.

T1 sequence (O14842 whole entry R211H): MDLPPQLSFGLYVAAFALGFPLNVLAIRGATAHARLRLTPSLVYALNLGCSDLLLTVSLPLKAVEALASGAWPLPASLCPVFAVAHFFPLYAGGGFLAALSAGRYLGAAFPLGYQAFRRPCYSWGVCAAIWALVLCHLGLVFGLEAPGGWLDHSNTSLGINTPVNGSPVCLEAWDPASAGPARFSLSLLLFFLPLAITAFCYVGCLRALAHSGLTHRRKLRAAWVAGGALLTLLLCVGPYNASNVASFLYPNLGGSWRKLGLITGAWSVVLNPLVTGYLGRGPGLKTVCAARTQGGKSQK

Turning to `Cc1cc(OCC[C@@H](O)CO)cc(C)c1-c1cccc(CNc2ccc(Cn3oc(=O)[n-]c3=O)cc2)c1C.[Na+]` [Example 101], the pEC50 (as a rule, the negative decadic logarithm of the EC50, by convention in mol/L) in experiment [1] is 6.64. Further, in experiment [2], the inhibition in vivo at 10 mg/kg was determined as 39% and the minimal effective dose amounted to 3 mg/kg.
For `Cc1cc(OCC[C@H](O)CO)cc(C)c1-c1cccc(CNc2ccc(Cn3oc(=O)[n-]c3=O)cc2)c1C.[Na+]` [Example 102] the same measures were 6.64, 48% and 10 mg/kg.
For `CCC(=O)NCCCOc1cc(C)c(-c2cccc(COc3ccc(Cn4oc(=O)[n-]c4=O)cc3)c2C)c(C)c1.[Na+]` [Example 119], in that order: 6.09, 26% and 3 mg/kg.
